Experimental findings from publication PMC7957516, “Biochemical Properties of Tyrosinase from Aspergillus terreus and Penicillium copticola; Undecanoic Acid from Aspergillus flavus, an Endophyte of Moringa oleifera, Is a Novel Potent Tyrosinase Inhibitor” (Molecules, 2021) are described below.

Values after ≈ are worked out from the molar mass of the structure shown.

For test [1], the target named is T1, tyrosinase from A. terreus.
T1 construct: gene TYR
Particulars: 50 mM L-tyrosine, Tris-HCl pH 7.0, 37 °C; 2 h preincubation with inhibitor at 30 °C.

Test [2] addresses T2, tyrosinase from P. copticola.
T2 construct: gene TYR
Particulars: 50 mM L-tyrosine, Tris-HCl pH 7.0, 37 °C; 2 h preincubation with inhibitor at 30 °C; P. copticola not named in the value sentence, inferred as the second of the two enzymes.

Regarding `O=c1cc(CO)occ1O` [kojic acid], the values for the IC50 in test [1] and in test [2] were 21.5 µg/mL (≈ 151 µM) and 15.1 µg/mL (≈ 106 µM), respectively.
